Experimental data published in US7767854B2, “N-substituted phenylacetamide derivative and pharmaceutical composition containing the same” (Dainippon Sumitomo Pharma Co., Ltd., priority 2005, dated 2010).

The compounds below were run on male Std: Wistar rats (assay: Pain test by plantar thermal stimuli (plantar test)). Settings: Rattus norvegicus, 4 h, 50 μl of 0.03% (W/V) solution i.pl. into right hind-paw; 4 hours after administration; cut-off 25 seconds; read-out: % MPE (percent maximum possible effect, withdrawal latency).
Assay type: in vivo
Experimental: Experiment 1: Pain Test by Plantar Thermal Stimuli (Plantar Test)
In the present experiment, the analgesic effect of the compounds of the invention was evaluated by the measurements of withdrawal latency to noxious thermal stimuli, according to the methods of Hargreaves, et al., [Pain, 32, 77-88 (1988)] and Field, et al., [J. Pharmacol. Exp. Ther., 282, 1242-1246 (1997)].
In detail, the experiment was carried out using male Std: Wistar rats (4 rats/group; body weight, 170-220 g) and a plantar test device (Model 7370, Ugo Basile) with infrared beam as a heat source. The rat was put into an experimental cage that is an acrylic box whose bottom is made of glass and was habituated therein. Then, the infrared beam was radiated to the plantar surface of right hind-paw thereof through the floor glass, and the withdrawal latency was measured every 5 minutes, 3 times. The intension of the infrared beam was adjusted so that the pre-drug administration latency was about 10 seconds. The cut-off time was set at 25 seconds in order to prevent a paw burn. The average of the latencies was calculated, and then it was defined as the value of the pre-drug administration latency of the test compound.
Next day, 50 μl of each solution of the test compounds [the compounds of the invention, the compounds of the comparative Examples and capsaicin (Sigma, U.S.A.)] or 50 μl of vehicle solvent (reference) was given to a right hind-paw of the rat by intraplantar injection (i. pl.) using a micro-syringe. The test compound was dissolved in a saline solution containing 10% Tween 80 (Sigma, U.S.A) and 10% ethanol to give a 0.03% (W/V) solution. The saline solution containing 10% Tween 80 and 10% ethanol was used as reference. Four hours after i.pl. administration of each the test compound or the reference to the rats, the experiment mentioned above was carried out, and then the post-drug administration latency was measured. The analgesic effects thereof were calculated with the following formula, which was known as a percent maximum possible effect (% MPE). % MPE=[(the value of post-drug latency−the value of pre-drug latency)/(25*−the value of pre-drug latency)]×100 *: cut-off time
With `COc1cc(CC(=O)NC2CCC(C)CC2)ccc1O` (centres unmarked) [Comparative Example 1, 2-(4-hydroxy-3-methoxyphenyl)-N-(4-methyl-cyclohexyl)acetamide, reference compound] the change in vivo at 300 µg/mL was 23.3%.
For `COc1cc(CC(=O)NC2CCCCC2)ccc1O` [Comparative Example 2, N-cyclohexyl-2-(4-hydroxy-3-methoxyphenyl)-acetamide, reference compound], the change in vivo at 300 µg/mL was 30.6%.
Compound `CCCCCC1CCC(NC(=O)Cc2ccc(O)c(OC)c2)CC1` (centres unmarked) [Example 3, 2-(4-hydroxy-3-methoxyphenyl)-N-(4-pentyl-cyclohexyl)acetamide] has a change in vivo at 300 µg/mL of 89.9%.
`CCC(C)(C)C1CCC(NC(=O)Cc2ccc(O)c(OC)c2)CC1` (centres unmarked) [Example 4] gave a change in vivo at 300 µg/mL of 56.6%.
Work on `COc1cc(CC(=O)NC2CCC(C3CCCCC3)CC2)ccc1O` (centres unmarked) [Example 5] yielded a change in vivo at 300 µg/mL of 59.2%.
`COc1cc(CC(=O)NC2CCC(c3ccccc3)CC2)ccc1O` (centres unmarked) [Example 6] was tested, and the change in vivo at 300 µg/mL was 82.6%.
`CCCC[C@H]1CC[C@@H](NC(=O)Cc2ccc(O)c(OC)c2)CC1` [Example 7] showed a change in vivo at 300 µg/mL of 78.6%.
Work on `CCCC1(CCC)CCC(NC(=O)Cc2ccc(O)c(OC)c2)CC1` [Example 9, N-(4,4-dipropylcyclohexyl)-2-(4-hydroxy-3-methoxyphenyl)acetamide] yielded a change in vivo at 300 µg/mL of 64.7%.
Work on `COc1cc(CC(=O)N[C@H]2CC[C@H](/C=C\C(C)C)CC2)ccc1O` [Example 14, 2-(4-hydroxy-3-methoxyphenyl)-N-{trans-4-[(Z)-3-methyl-1-butenyl]cyclohexyl}acetamide] yielded a change in vivo at 300 µg/mL of 100%.
`COc1cc(CC(=O)N[C@H]2CC[C@H](/C=C\CC(C)C)CC2)ccc1O` [Example 15] was tested, and the change in vivo at 300 µg/mL was 94.4%.
`CCC/C=C\[C@H]1CC[C@H](NC(=O)Cc2ccc(O)c(OC)c2)CC1` [Example 17] was tested, and the change in vivo at 300 µg/mL was 74.9%.
`COc1cc(CC(=O)N[C@H]2CC[C@H](/C=C\C3CC3)CC2)ccc1O` [Example 18] was tested, and the change in vivo at 300 µg/mL was 80.5%.
In the case of `C=C/C=C/[C@H]1CC[C@H](NC(=O)Cc2ccc(O)c(OC)c2)CC1` [Example 19], the change in vivo at 300 µg/mL is reported as 35.9%.
With `CCOC(=O)/C=C/[C@H]1CC[C@H](NC(=O)Cc2ccc(O)c(OC)c2)CC1` [Example 20] the change in vivo at 300 µg/mL was 53.8%.
Work on `COc1cc(CC(=O)N[C@H]2CC[C@H](/C=C/C(C)=O)CC2)ccc1O` [Example 21] yielded a change in vivo at 300 µg/mL of 50.3%.
Compound `COc1cc(CC(=O)N[C@H]2CC[C@H](/C=C\CC(F)(F)F)CC2)ccc1O` [Example 23] has a change in vivo at 300 µg/mL of 77.9%.
Compound `COc1cc(CC(=O)N[C@H]2CC[C@H](C=C(C)C)CC2)ccc1O` [Example 24] has a change in vivo at 300 µg/mL of 72.4%.
`COc1cc(CC(=O)N[C@H]2CC[C@H](C=C3CCCC3)CC2)ccc1O` [Example 25] showed a change in vivo at 300 µg/mL of 98.3%.
Compound `CCCC[C@H]1CC[C@H](NC(=O)Cc2ccc(O)c(OC)c2)CC1` [Example 28] has a change in vivo at 300 µg/mL of 87.1%.
Work on `CCOC(=O)CC[C@H]1CC[C@H](NC(=O)Cc2ccc(O)c(OC)c2)CC1` [Example 29] yielded a change in vivo at 300 µg/mL of 45.8%.
In the case of `CCCCC[C@H]1CC[C@H](NC(=O)Cc2ccc(O)c(OC)c2)CC1` [Example 30], the change in vivo at 300 µg/mL is reported as 71.3%.
`CCC[C@H]1CC[C@H](NC(=O)Cc2ccc(O)c(OC)c2)CC1` [Example 31] gave a change in vivo at 300 µg/mL of 54.3%.
Compound `COc1cc(CC(=O)N[C@H]2CC[C@H](CCC3CC3)CC2)ccc1O` [Example 32] has a change in vivo at 300 µg/mL of 85.5%.
`COc1cc(CC(=O)N[C@H]2CC[C@H](CC(C)C)CC2)ccc1O` [Example 33] showed a change in vivo at 300 µg/mL of 73.3%.
Compound `COc1cc(CC(=O)N[C@H]2CC[C@H](CC3CCCC3)CC2)ccc1O` [Example 34] has a change in vivo at 300 µg/mL of 97.8%.
Work on `CCCCO[C@H]1CC[C@H](NC(=O)Cc2ccc(O)c(OC)c2)CC1` [Example 35, N-(trans-4-butoxycyclohexyl)-2-(4-hydroxy-3-methoxyphenyl)acetamide] yielded a change in vivo at 300 µg/mL of 42.8%.
`COc1cc(CC(=O)N[C@H]2CC[C@H](OCCC(C)C)CC2)ccc1O` [Example 37] was tested, and the change in vivo at 300 µg/mL was 49.9%.
`COc1cc(CC(=O)N[C@H]2CC[C@H](OCCCC(F)(F)F)CC2)ccc1O` [Example 38] gave a change in vivo at 300 µg/mL of 57.6%.
Work on `CCCCOC[C@H]1CC[C@H](NC(=O)Cc2ccc(O)c(OC)c2)CC1` [Example 39] yielded a change in vivo at 300 µg/mL of 39.6%.
Work on `COc1cc(CC(=O)N[C@H]2CC[C@H](OC(=O)c3ccc(C)cc3)CC2)ccc1O` [Example 40, 2-(4-hydroxy-3-methoxyphenyl)-N-[trans-4-(4-methylphenylcarbonyloxy)cyclohexyl]acetamide] yielded a change in vivo at 300 µg/mL of 48.3%.
Compound `COc1cc(CC(=O)N[C@H]2CC[C@@H](CC=C(C)C)CC2)ccc1O` [Example 47, 2-(4-hydroxy-3-methoxyphenyl)-N-[cis-4-(3-methyl-2-butenyl)cyclohexyl]acetamide] has a change in vivo at 300 µg/mL of 69%.
In the case of `COc1cc(CC(=O)N[C@H]2CC[C@@H](CCC(C)C)CC2)ccc1O` [Example 48, 2-(4-hydroxy-3-methoxyphenyl)-N-[cis-4-(3-methylbutyl)cyclohexyl]acetamide], the change in vivo at 300 µg/mL is reported as 79.6%.
`CC/C=C\[C@H]1CC[C@@H](NC(=O)Cc2ccc(O)c(OC)c2)CC1` [Example 49, N-{cis-4-[(Z)-1-butenyl]cyclohexyl}-2-(4-hydroxy-3-methoxyphenyl)acetamide] gave a change in vivo at 300 µg/mL of 97%.
`C/C=C\[C@H]1CC[C@@H](NC(=O)Cc2ccc(O)c(OC)c2)CC1` [Example 50] gave a change in vivo at 300 µg/mL of 48.2%.
For `COc1cc(CC(=O)N[C@H]2CC[C@@H](/C=C\CC(C)C)CC2)ccc1O` [Example 51], the change in vivo at 300 µg/mL was 96.4%.
With `CC/C=C/[C@H]1CC[C@H](NC(=O)Cc2ccc(O)c(OC)c2)CC1` [Example 52, N-{trans-4-[(E)-1-butenyl]cyclohexyl}-2-(4-hydroxy-3-methoxyphenyl)acetamide] the change in vivo at 300 µg/mL was 91.5%.
With `C/C=C/[C@H]1CC[C@H](NC(=O)Cc2ccc(O)c(OC)c2)CC1` [Example 53] the change in vivo at 300 µg/mL was 47.1%.
In the case of `CCC/C=C/[C@H]1CC[C@H](NC(=O)Cc2ccc(O)c(OC)c2)CC1` [Example 54], the change in vivo at 300 µg/mL is reported as 82.5%.
`COc1cc(CC(=O)N[C@H]2CC[C@H](/C=C/C3CC3)CC2)ccc1O` [Example 55] showed a change in vivo at 300 µg/mL of 55.4%.
In the case of `COc1cc(CC(=O)N[C@H]2CC[C@H](/C=C/CC(C)C)CC2)ccc1O` [Example 56], the change in vivo at 300 µg/mL is reported as 70.2%.
For `COc1cc(CC(=O)N[C@H]2CC[C@H](/C=C/C3CCC3)CC2)ccc1O` [Example 57], the change in vivo at 300 µg/mL was 54.2%.
`COc1cc(CC(=O)N[C@H]2CC[C@H](/C=C/CC3CC3)CC2)ccc1O` [Example 58] was tested, and the change in vivo at 300 µg/mL was 48.6%.
For `COc1cc(CC(=O)N[C@H]2CC[C@H](CCC3CCC3)CC2)ccc1O` [Example 59, N-[trans-4-(2-cyclobutylethyl)cyclohexyl]-2-(4-hydroxy-3-methoxyphenyl)acetamide], the change in vivo at 300 µg/mL was 74.7%.
`CCC/C=C/[C@H]1CC[C@@H](NC(=O)Cc2ccc(O)c(OC)c2)CC1` [Example 60, 2-(4-hydroxy-3-methoxyphenyl)-N-{cis-4-[(E)-1-pentenyl]cyclohexyl}acetamide] gave a change in vivo at 300 µg/mL of 91.4%.
In the case of `C/C=C/[C@H]1CC[C@@H](NC(=O)Cc2ccc(O)c(OC)c2)CC1` [Example 61], the change in vivo at 300 µg/mL is reported as 49.4%.
With `CC/C=C/[C@H]1CC[C@@H](NC(=O)Cc2ccc(O)c(OC)c2)CC1` [Example 62] the change in vivo at 300 µg/mL was 86.3%.
For `COc1cc(CC(=O)N[C@H]2CC[C@@H](/C=C/C(C)C)CC2)ccc1O` [Example 63], the change in vivo at 300 µg/mL was 96.4%.
With `COc1cc(CC(=O)N[C@H]2CC[C@@H](/C=C/C3CC3)CC2)ccc1O` [Example 64] the change in vivo at 300 µg/mL was 71.1%.
`COc1cc(CC(=O)N[C@H]2CC[C@@H](/C=C/CC(C)C)CC2)ccc1O` [Example 65] gave a change in vivo at 300 µg/mL of 100%.
`COc1cc(CC(=O)N[C@H]2CC[C@@H](/C=C/C3CCC3)CC2)ccc1O` [Example 66] was tested, and the change in vivo at 300 µg/mL was 88%.
In the case of `COc1cc(CC(=O)N[C@H]2CC[C@@H](/C=C/CC3CC3)CC2)ccc1O` [Example 67], the change in vivo at 300 µg/mL is reported as 55.6%.
`CCC[C@H]1CC[C@@H](NC(=O)Cc2ccc(O)c(OC)c2)CC1` [Example 68, 2-(4-hydroxy-3-methoxyphenyl)-N-(cis-4-propylcyclohexyl)acetamide] was tested, and the change in vivo at 300 µg/mL was 81.6%.
Compound `COc1cc(CC(=O)N[C@H]2CC[C@@H](CCCC(C)C)CC2)ccc1O` [Example 69] has a change in vivo at 300 µg/mL of 79.9%.
`COc1cc(CC(=O)N[C@H]2CC[C@@H](CCC3CCC3)CC2)ccc1O` [Example 70] was tested, and the change in vivo at 300 µg/mL was 92.6%.
For `COc1cc(CC(=O)N[C@H]2CC[C@@H](CCCC3CC3)CC2)ccc1O` [Example 71], the change in vivo at 300 µg/mL was 87.9%.

Same assay, conditions: Rattus norvegicus; 50 μl of 0.03% (W/V) solution i.pl. into right hind-paw; 4 hours after administration; cut-off 25 seconds; read-out: % MPE (percent maximum possible effect, withdrawal latency)
Work on `COc1cc(CC(=O)N[C@H]2CC[C@H](OC(=O)Cc3ccccc3)CC2)ccc1O` [Example 41, N-[trans-4-(benzylcarbonyloxy)cyclohexyl]-2-(4-hydroxy-3-methoxyphenyl)acetamide] yielded a change in vivo at 300 µg/mL of 45.8%.
